Test results as given in PMC10583239 (CPT: Pharmacometrics & Systems Pharmacology, 2023).

Test: Clinical DDI cohort: midazolam with pomotrelvir 1050 mg b.i.d.
[1] = 1 mg midazolam alone, Day 1, N = 8
[2] = midazolam + pomotrelvir 1050 mg twice daily, Day 6
[3] = midazolam + pomotrelvir 1050 mg twice daily, Day 11

| SMILES | AUCinf geometric mean [1] [ng·h/mL] | AUClast geometric mean [1] [ng·h/mL] | Cmax geometric mean [1] [ng/mL] | AUCinf geometric mean ratio (MDZ + POMO)/(MDZ) (Day 6 vs Day 1) | AUClast geometric mean ratio (MDZ + POMO)/(MDZ) (Day 6 vs Day 1) | Cmax geometric mean ratio (MDZ + POMO)/(MDZ) (Day 6 vs Day 1) | AUCinf geometric mean ratio (MDZ + POMO)/(MDZ) (Day 11 vs Day 1) | AUClast geometric mean ratio (MDZ + POMO)/(MDZ) (Day 11 vs Day 1) | Cmax geometric mean ratio (MDZ + POMO)/(MDZ) (Day 11 vs Day 1) | AUCinf geometric mean [2] [ng·h/mL] | AUClast geometric mean [2] [ng·h/mL] | Cmax geometric mean [2] [ng/mL] | AUCinf geometric mean [3] [ng·h/mL] | AUClast geometric mean [3] [ng·h/mL] | Cmax geometric mean [3] [ng/mL] | Cmax (both, human, plasma, oral, 1 mg) [ng/mL] |
| --- | --- | --- | --- | --- | --- | --- | --- | --- | --- | --- | --- | --- | --- | --- | --- | --- |
| OCc1ncc2n1-c1ccc(Cl)cc1C(c1ccccc1F)=NC2 [1‐OH‐midazolam, 1‐hydroxy‐midazolam] | 4.76 | 4.72 | 1.36 | 0.65 | 0.62 | 0.53 | 0.56 | 0.56 | 0.58 | 3.09 | 2.87 | 0.73 | 2.66 | 2.64 | 0.8 | – |
| Cc1ncc2n1-c1ccc(Cl)cc1C(c1ccccc1F)=NC2 [Midazolam, midazolam, reference compound] | – | – | – | 1.48 | 1.51 | 1.09 | 1.33 | 1.36 | 1.09 | – | – | 4.44 | – | – | 4.44 | 4.06 |
